According to ChEMBL document CHEMBL3352027, “Pharmacologically active metabolites, combination screening and target identification-driven drug repositioning in antituberculosis drug discovery” (2014):
Values after ≈ are worked out from the molar mass of the structure shown.

Assays:
Assay type in all cases: functional
[1] = tested on: Mycolicibacterium smegmatis; assay: Antitubercular activity against Mycobacterium smegmatis by checkerboard assay in presence of spectinomycin
[2] = tested on: Mycolicibacterium smegmatis; assay: Antitubercular activity against Mycobacterium smegmatis by checkerboard assay
[3] = tested on: Mycolicibacterium smegmatis; assay: Antitubercular activity against Mycobacterium smegmatis by checkerboard assay in presence of rifampicin
[4] = tested on: Mycolicibacterium smegmatis; assay: Antitubercular activity against Mycobacterium smegmatis by checkerboard assay in presence of kanamycin
[5] = tested on: Mycolicibacterium smegmatis; assay: Ratio of MIC99 for Mycobacterium smegmatis to ratio of MIC99 for Mycobacterium smegmatis in presence of kanamycin
[6] = tested on: Mycolicibacterium smegmatis; assay: Antitubercular activity against Mycobacterium smegmatis by checkerboard assay in presence of 25-desacetylrifampicin
[7] = tested on: Mycolicibacterium smegmatis; assay: Ratio of MIC99 for Mycobacterium smegmatis to ratio of MIC99 for Mycobacterium smegmatis in presence of 25-desacetylrifampicin
[8] = tested on: Mycobacterium tuberculosis; assay: Antitubercular activity against drug-sensitive Mycobacterium tuberculosis
[9] = tested on: Mycolicibacterium smegmatis; assay: Ratio of MIC99 for Mycobacterium smegmatis to ratio of MIC99 for Mycobacterium smegmatis in presence of chlorpromazine
[10] = tested on: Mycolicibacterium smegmatis; assay: Antitubercular activity against Mycobacterium smegmatis by checkerboard assay in presence of chlorpromazine; conditions: for MIC99: Mycolicibacterium smegmatis
[11] = tested on: Mycolicibacterium smegmatis; assay: Antitubercular activity against Mycobacterium smegmatis by checkerboard assay in presence of 7-hydroxy chlorpromazine; conditions: for MIC99: Mycolicibacterium smegmatis
[12] = tested on: Mycolicibacterium smegmatis; assay: Ratio of MIC99 for Mycobacterium smegmatis to ratio of MIC99 for Mycobacterium smegmatis in presence of 7-hydroxy chlorpromazine
[13] = tested on: Mycolicibacterium smegmatis; assay: Antitubercular activity against Mycobacterium smegmatis by checkerboard assay in presence of nor-chlorpromazine; conditions: for MIC99: Mycolicibacterium smegmatis
[14] = tested on: Mycolicibacterium smegmatis; assay: Antitubercular activity against Mycobacterium smegmatis by checkerboard assay in presence of chlorpromazine-N-oxide; conditions: for MIC99: Mycolicibacterium smegmatis
[15] = tested on: Mycolicibacterium smegmatis; assay: Ratio of MIC99 for Mycobacterium smegmatis to ratio of MIC99 for Mycobacterium smegmatis in presence of chlorpromazine-N-oxide
[16] = tested on: Mycolicibacterium smegmatis; assay: Ratio of MIC99 for Mycobacterium smegmatis to ratio of MIC99 for Mycobacterium smegmatis in presence of nor-chlorpromazine
[17] = tested on: Mycolicibacterium smegmatis; assay: Antitubercular activity against Mycobacterium smegmatis assessed as reduction in MIC99 by checkerboard assay in presence of chlorpromazine-N-S-dioxide relative to control
[18] = tested on: Mycolicibacterium smegmatis; assay: Antitubercular activity against Mycobacterium smegmatis by checkerboard assay in presence of chlorpromazine sulfoxide
[19] = tested on: Mycolicibacterium smegmatis; assay: Antitubercular activity against Mycobacterium smegmatis by checkerboard assay in presence of chlorpromazine-N-S-dioxide
[20] = tested on: Mycolicibacterium smegmatis; assay: Antitubercular activity against Mycobacterium smegmatis assessed as reduction in MIC99 by checkerboard assay in presence of chlorpromazine sulfoxide relative to control
[21] = tested on: Mycolicibacterium smegmatis; assay: Antitubercular activity against Mycobacterium smegmatis by checkerboard assay in presence of nor-chlorpromazine sulfoxide
[22] = tested on: Mycolicibacterium smegmatis; assay: Antitubercular activity against Mycobacterium smegmatis assessed as reduction in MIC99 by checkerboard assay in presence of nor-chlorpromazine sulfoxide relative to control

Compound: CNCCCN1c2ccccc2[S+]([O-])c2ccc(Cl)cc21 (configuration not stated)
- MIC99 [1]: 64.9 µM
- MIC99 [2]: > 2080 µM

Compound: C[N+](C)([O-])CCCN1c2ccccc2Sc2ccc(Cl)cc21
- MIC99 [3]: 498 µM
- MIC99 [1]: 124 µM
- MIC99 [2]: 995 µM
- MIC99 [4]: 498 µM
- Ratio [5]: 0.5
- MIC99 [6]: 498 µM
- Ratio [7]: 0.5

Compound: C[N+](C)([O-])CCCN1c2ccccc2[S+]([O-])c2ccc(Cl)cc21 (configuration not stated)
- MIC99 [1]: 1900 µM
- MIC99 [2]: > 1900 µM
- MIC99 [4]: 475 µM

Compound: CN[C@@H]1[C@H](O)[C@H](NC)[C@H]2O[C@]3(O)[C@H](O[C@@H]2[C@H]1O)O[C@H](C)C[C@H]3NC(=O)Cc1ccccn1
- MIC [8]: 0.8 µg/mL (≈ 1.77 µM)

Compound: CN[C@@H]1[C@H](O)[C@H](NC)[C@H]2O[C@]3(O)[C@H](O[C@@H]2[C@H]1O)O[C@H](C)C[C@H]3NC(=O)Cc1ccccc1
- MIC [8]: 0.8 µg/mL (≈ 1.77 µM)

Compound: CN[C@@H]1[C@H](O)[C@H](NC)[C@H]2O[C@]3(O)[C@H](O[C@@H]2[C@H]1O)O[C@H](C)C[C@H]3NC(=O)Cc1ccc(F)cn1
- MIC [8]: 0.8 µg/mL (≈ 1.7 µM)

Compound: CN[C@@H]1[C@H](O)[C@H](NC)[C@H]2O[C@]3(O)[C@H](O[C@@H]2[C@H]1O)O[C@H](C)C[C@H]3NC(=O)Cc1ccc(Cl)cn1
- MIC [8]: 0.8 µg/mL (≈ 1.64 µM)

Compound: CN[C@@H]1[C@H](O)[C@H](NC)[C@H]2O[C@]3(O)[C@H](O[C@@H]2[C@H]1O)O[C@H](C)C[C@H]3NC(=O)CNC(C)(C)C
- MIC [8]: 0.8 µg/mL (≈ 1.79 µM)

Compound: CN[C@@H]1[C@H](O)[C@H](NC)[C@H]2O[C@]3(O)[C@H](O[C@@H]2[C@H]1O)O[C@H](C)C[C@H]3NC(=O)Cc1cscn1
- MIC [8]: 0.8 µg/mL (≈ 1.74 µM)

Compound: CN[C@@H]1[C@H](O)[C@H](NC)[C@H]2O[C@]3(O)[C@H](O[C@@H]2[C@H]1O)O[C@H](C)C[C@H]3NC(=O)Cc1cc(Cl)ccn1
- MIC [8]: 0.8 µg/mL (≈ 1.64 µM)

Compound: CN(C)CCCN1c2ccc(O)cc2Sc2ccc(Cl)cc21 [7-HYDROXYCHLORPROMAZINE]
- MIC99 [3]: 31.1 µM
- MIC99 [1]: 15.6 µM
- MIC99 [2]: 62.2 µM
- MIC99 [4]: 31.1 µM
- MIC99 [6]: 62.2 µM
- Ratio [7]: 0.5
- Ratio [9]: 0.5
- MIC99 [10]: 62.2 µM

Compound: CN(C)CCCN1c2ccccc2[S+]([O-])c2ccc(Cl)cc21 (configuration not stated) [CHLOROPROMAZINE SULFOXIDE]
- MIC99 [1]: 1990 µM
- MIC99 [2]: > 1990 µM
- MIC99 [4]: 1990 µM

Compound: CN(C)CCCN1c2ccccc2Sc2ccc(Cl)cc21 [CHLORPROMAZINE]
- MIC99 [3]: 58.6 µM
- MIC99 [1]: 29.3 µM
- MIC99 [2]: 117 µM
- MIC99 [4]: 58.6 µM
- MIC99 [11]: 29.3 µM
- Ratio [5]: 0.5
- MIC99 [6]: 29.3 µM
- Ratio [12]: 0.25

Compound: CO[C@H]1/C=C/O[C@@]2(C)Oc3c(C)c(O)c4c(O)c(c(/C=N/N5CCN(C)CC5)c(O)c4c3C2=O)NC(=O)/C(C)=C\C=C\[C@H](C)[C@H](O)[C@@H](C)[C@@H](O)[C@@H](C)[C@H](O)[C@@H]1C [DESACETYLRIFAMPIN]
- fractional inhibitory concentration index (FICI) [13]: 0.5
- MIC99 [13]: 0.67 µM
- MIC99 [2]: 5.33 µM
- fractional inhibitory concentration index (FICI) [14]: 0.75
- MIC99 [14]: 0.67 µM
- fractional inhibitory concentration index (FICI) [11]: 0.75
- MIC99 [11]: 0.33 µM
- Ratio [15]: 0.252
- Ratio [12]: 0.248
- Ratio [9]: 0.25
- fractional inhibitory concentration index (FICI) [10]: 0.5
- MIC99 [10]: 1.33 µM
- Ratio [16]: 0.252

Compound: NC[C@H]1O[C@H](O[C@H]2[C@H](O)[C@@H](O[C@H]3O[C@H](CO)[C@@H](O)[C@H](N)[C@H]3O)[C@H](N)C[C@@H]2N)[C@H](O)[C@@H](O)[C@@H]1O [KANAMYCIN]
- fractional inhibitory concentration index (FICI) [13]: 0.5
- MIC99 [13]: 0.89 µM
- fold change (FC) [17]: 2
- MIC99 [18]: 0.89 µM
- MIC99 [2]: 7.16 µM
- fractional inhibitory concentration index (FICI) [14]: 1
- MIC99 [14]: 0.89 µM
- fractional inhibitory concentration index (FICI) [11]: 0.5
- MIC99 [11]: 0.89 µM
- MIC99 [19]: 0.89 µM
- Ratio [15]: 0.497
- fold change (FC) [20]: 2
- Ratio [12]: 0.249
- Ratio [9]: 0.5
- fractional inhibitory concentration index (FICI) [10]: 1
- MIC99 [10]: 3.57 µM
- Ratio [16]: 0.249

Compound: CNCCCN1c2ccccc2Sc2ccc(Cl)cc21 [NOR1-CHLORPROMAZINE]
- MIC99 [3]: 34.2 µM
- MIC99 [1]: 34.2 µM
- MIC99 [2]: 137 µM
- MIC99 [4]: 34.2 µM
- Ratio [5]: 0.25
- MIC99 [6]: 34.2 µM
- Ratio [7]: 0.25

Compound: CO[C@H]1/C=C/O[C@@]2(C)Oc3c(C)c(O)c4c(O)c(c(/C=N/N5CCN(C)CC5)c(O)c4c3C2=O)NC(=O)/C(C)=C\C=C\[C@H](C)[C@H](O)[C@@H](C)[C@@H](O)[C@@H](C)[C@H](OC(C)=O)[C@@H]1C [RIFAMPIN]
- fractional inhibitory concentration index (FICI) [13]: 0.5
- MIC99 [13]: 0.32 µM
- MIC99 [2]: 2.53 µM
- fractional inhibitory concentration index (FICI) [14]: 1
- MIC99 [14]: 0.63 µM
- fractional inhibitory concentration index (FICI) [11]: 0.63
- MIC99 [11]: 0.32 µM
- Ratio [15]: 0.5
- Ratio [12]: 0.126
- Ratio [9]: 0.126
- fractional inhibitory concentration index (FICI) [10]: 0.63
- MIC99 [10]: 0.2 µM
- Ratio [16]: 0.254

Compound: CN[C@@H]1[C@H](O)[C@H](NC)[C@H]2O[C@@]3(O)C(=O)C[C@@H](C)O[C@H]3O[C@@H]2[C@H]1O [SPECTINOMYCIN]
- fractional inhibitory concentration index (FICI) [13]: 0.31
- MIC99 [13]: 5.25 µM
- fold change (FC) [17]: 2
- MIC99 [18]: 10.5 µM
- MIC99 [2]: 84.1 µM
- fractional inhibitory concentration index (FICI) [14]: 0.63
- MIC99 [14]: 84.1 µM
- MIC99 [21]: 21 µM
- fractional inhibitory concentration index (FICI) [11]: 0.19
- MIC99 [11]: 5.25 µM
- MIC99 [19]: 42 µM
- Ratio [15]: 0.5
- fold change (FC) [20]: 16
- fold change (FC) [22]: 4
- Ratio [12]: 0.062
- Ratio [9]: 0.062
- fractional inhibitory concentration index (FICI) [10]: 0.31
- MIC99 [10]: 5.25 µM
- Ratio [16]: 0.062
